Measurements as given in patent US20100234314A1, “IDARUBICIN FOR THE TREATMENT OF LYMPHOMA IN A DOG” (priority 2007, published 2010).
Like-named read-outs stand apart in the source and are kept apart here.

What was measured:
[1] = test system: canine lymphoma cell lines; assay: Anti-proliferation, canine lymphoma cell lines; type: cell-based; conditions: summary
Description: (§1) (2) Ex vivo canine lymphoma nodal tissue. […] (3) In vitro Anti-Proliferation Assay Method.
(§2) (Mean Drug Treatment OD−Mean media blank OD)×100=% Control Proliferation
(§3) (Mean Untreated OD−Mean media blank OD)

[2] = test system: CL-1 canine lymphoma cell line (T-cell LSA line); assay: In vitro anti-proliferation assay (MTS), CL-1 cell line; type: cell-based; conditions: Canis lupus familiaris; CL-1, T-cell LSA line
Description: as §1, §2, §3

[3] = test system: ex-vivo derived canine lymphoma cells (nodal tissue); assay: In vitro anti-proliferation assay (MTS), ex vivo canine lymphoma nodal tissue; conditions: for Inhibition of the proliferation of canine lymphoma nodal tissues: summary; for IC50: read-out: Anti-proliferation IC50
Description: The study utilized an in vitro assay run with ex-vivo derived canine lymphoma cells and with established cell lines maintained over many passages using standard tissue culture techniques. Nodal tissues were obtained from canine lymphoma patients at the MSU Veterinary Clinic.
(2) Ex vivo canine lymphoma nodal tissue. Malignant lymph nodes were excised by veterinary staff at Michigan State University (MSU) Veterinary College, placed into transport media (Advanced RPMI 1640 complete medium supplemented with 10% Fetal Bovine Serum (FBS), 100 U/mL penicillin, 100 ug/mL streptomycin and 0.25 ug/mL Amphotercin B (Invitrogen/Gibco®). Nodes were processed within 24 hours of removal by mincing into tiny pieces and passing through a tissue sieve. Cell suspensions were spun at 200×g, supernatant was removed, and the cell pellet was resuspended in NH4Cl (0.15M) for 10 minutes at room temperature. The cell suspension was pelleted by centrifugation; the NH4Cl was removed and washed once with Hanks Balanced Salt Solution (HBSS), followed by re-suspension in Proliferation Medium (Advanced RPMI complete, 1% FBS, 50 nM 2-Mercaptoethanol, 100 U/mL penicillin, 100 ug/mL streptomycin and 0.25 ug/mL Amphotercin B). The cell suspension was then passed through a 100 μm nylon cell strainer (BD-Falcon) and counted using a hemacytometer. Cells were cultured in either Proliferation Medium alone, Proliferation Medium supplemented with 0.005% Pansorbin® (Heat inactivated, formalin-fixed Staphylococcus Aureus cells (SAC), Calbiochem), and 10 ng/mL canine IL-2 (R&D Systems), or Proliferation Medium supplemented with 125 ng/mL concavalin A (Sigma) and 125 ng/mL lipopolysaccamide (LPS; Calbiochem). (3) In vitro Anti-Proliferation Assay Method. Cells cultured in medium described above were plated in 96-well Costar plates (Corning) at a density of 1×10^3 cells/well (lymphoma cell lines) or 2×10^5 cells/well (lymph node cells) and exposed to various concentrations of test compounds for up to 5 days at 37° C. in a humidified incubator with 5% CO2. Effects on proliferation were determined using the CellTiter 96® Aqueous Non-Radioactive Cell Proliferation Assay (Promega) according to manufacturer's instructions. In general, proliferation was indirectly measured using a soluble tetrazolium salt (MTS) and an electron coupling agent. MTS bioreduction into a formazan product soluble in tissue culture medium was monitored by absorbance at 490 nm on a Spectramax plate reader using Softmax Pro 4.6 software (Molecular Devices). […] (4) Data Analysis: For nodal tissue, data were handled in the following manner through Prism 4.0 (Graphpad Software). Mean values from raw optical density values (OD) were calculated for the Un-stimulated, Simulated and all Drug Treatment (triplicates) and used in the following formula:
(Mean Drug Treatment OD−Mean Un-stim OD)×100=% Control Proliferation
(Mean Stim OD−Mean Un-stim OD)
Once calculated, these values for each drug concentration (or standard) were graphed and an IC50 calculated by a point to point analysis. Percent control values were not allowed to exceed 100% or fall below 0% for analysis of IC50 values.

[4] = test system: 3132 canine lymphoma cell line (B-cell LSA line); assay: In vitro anti-proliferation assay (MTS), 3132 cell line; type: cell-based; conditions: Canis lupus familiaris; 3132, B-cell LSA line
Description: as §1, §2, §3

[5] = Oral bioavailability in dogs, effect of feeding; type: in vivo; conditions: dog
[6] = MSU LN 1, chemotherapy resistant B-cell LSA, stimulant SAC + IL-2
[7] = MSU LN 1 ID618801, chemotherapy resistant B-cell LSA, stimulant LPS + ConA
[8] = MSU LN 6, chemotherapy resistant T-cell LSA, stimulant SAC + IL-2
[9] = MSU LN 6 ID401557, chemotherapy resistant T-cell LSA, stimulant LPS + ConA
[10] = MSU LN 7 ID663780, chemotherapy resistant T-cell LSA, stimulant LPS + ConA
[11] = MSU LN 8, de novo T-cell lymphoma, stimulant SAC + IL-2
[12] = MSU LN 8 ID668165, de novo T-cell lymphoma, stimulant LPS + ConA
[13] = MSU LN 10 ID401979, chemotherapy resistant B-cell LSA, stimulant LPS + ConA

Row | SMILES | Inhibition of the proliferation of canine lymphoma cell lines [1] | IC50 [2] [nM] | Inhibition of the proliferation of canine lymphoma nodal tissues [3] | IC50 [3, 6] [nM] | IC50 [3, 7] [nM] | IC50 [3, 8] [nM] | IC50 [3, 9] [nM] | IC50 [3, 10] [nM] | IC50 [3, 11] [nM] | IC50 [3, 12] [nM] | IC50 [3, 13] [nM] | IC50 [4] [nM] | Oral bioavailability, effect of feeding [5] | Potency and cytotoxicity compared with doxorubicin ([3]; all nodal and cell line lymphomas regardless of B or T-cell lineage) | Inhibition of proliferation compared with doxorubicin ([3]; all nodal tissue from dogs diagnosed with chemotherapy resistant lymphomas) | IC50 ([3]; MSU LN 11 ID671795, de novo B-cell LSA, stimulant LPS + ConA) [nM] | IC50 ([3]; MSU LN 14 ID403527, de novo T-cell LSA, stimulant Con A) [nM]
1 | COc1cccc2c1C(=O)c1c(O)c3c(c(O)c1C2=O)C[C@@](O)(C(=O)CO)C[C@@H]3O[C@H]1C[C@H](N)[C@H](O)[C@H](C)O1 [Doxorubicin, doxorubicin] | inhibited | 4.3 | dose dependent inhibition | 11 | 55 | 13 | 28 | 10 | 7 | 9 | > 100 | – | – | – | – | – | –
2 | CC(=O)[C@]1(O)Cc2c(O)c3c(c(O)c2[C@@H](O[C@H]2C[C@H](N)[C@H](O)[C@H](C)O2)C1)C(=O)c1ccccc1C3=O [Idarubicin, idarubicin] | inhibited | 1.9 | dose dependent inhibition | 7.5 | 7.5 | 2.5 | 3 | 2.5 | 3 | 4 | 56 | 2.7 | not adversely affected by feeding | more potent and cytotoxic than doxorubicin | more effective | 4 | 11
